The nature of test [1]: Counterscreen for antagonists of the orexin 1 receptor (OX1R; HCRTR1): Fluorescence-based cell-based high throughput dose response assay to identify antagonists of the parental CHO cell line. [Related pubchem assays (depositor defined):AID434989, AID435008, AID463079, AID485270, AID492963, AID492964, AID492965, AID493232, AID504699, AID504701]. Format: functional. On the technique in general: Counterscreens check selectivity or assay interference.

Test [2] deals with T1, Orexin receptor type 2 (Homo sapiens, UniProt O43614). Description: Counterscreen assay for antagonists of the orexin 1 receptor (OX1R; HCRTR1): Fluorescence-based cell-based dose response assay for antagonists of the orexin 2 receptor (OX2R; HCRTR2), run by assay provider. It is filed as functional.
Test [3] addresses T1, Orexin receptor type 2. Nature of the test: Counterscreen assay for antagonists of the orexin 1 receptor (OX1R; HCRTR1): Homogeneous Time Resolved Fluorescence (HTRF)-based cell-based dose response assay for antagonists of the orexin 2 receptor (OX2R; HCRTR2), run by assay provider. It is filed as functional.
Test [4] concerns the target T2, Orexin/Hypocretin receptor type 1 (Homo sapiens, UniProt O43613). Nature of the test: Homogeneous Time Resolved Fluorescence (HTRF)-based cell-based high throughput dose response assay for antagonists of the orexin 1 receptor (OX1R; HCRTR1). [Related pubchem assays (depositor defined):AID434989, AID435008, AID463079, AID485270, AID492963, AID492964, AID492965, AID493232, AID504717, AID504718]. Format: functional. (In general: In TR-FRET formats the signal depends on donor and acceptor labels being close together.)

The target in test [5] is T2, Orexin/Hypocretin receptor type 1. Nature of the test: Fluorescence-based cell-based high throughput dose response assay for antagonists of the orexin 1 receptor (OX1R; HCRTR1). [Related pubchem assays (depositor defined):AID434989, AID435008, AID463079, AID485270, AID492963, AID492964, AID492965, AID493232, AID504717, AID504718]. Format: functional.
The next test concerns CHO-K1. Description: Counterscreen for antagonists of the orexin 1 receptor (OX1R; HCRTR1): Homogeneous time resolved fluorescence (HTRF)-based cell-based dose response assay to identify antagonists of the parental CHO-K1 cell line. [Related pubchem assays (depositor defined):AID434989, AID435008, AID463079, AID485270, AID492963, AID492964, AID492965, AID493232, AID504699, AID504701]. It is filed as functional. The note with it: Cricetulus griseus.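 Note: potency for inhibition of ATP-stimulated IP1 production as antagonists.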

Test [6] has as its target T3, Endoribonuclease toxin MazF (Escherichia coli K-12, UniProt P0AE70).
T3 sequence (P0AE70 whole entry): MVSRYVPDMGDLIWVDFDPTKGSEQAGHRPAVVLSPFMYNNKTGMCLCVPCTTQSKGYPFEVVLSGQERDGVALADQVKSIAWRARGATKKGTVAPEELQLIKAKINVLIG
Description: MazF toxin RNase activators, dose response, biochemical, fluorescence, single-stranded RNA substrate, uHTS hits (AID 588481). It is filed as functional.

The target of test [7] is T3, Endoribonuclease toxin MazF. Description: fluorescent RNA oligo signal without MazF, dose response, counter-screen for MazEF activator project, biochemical, fluorescence, single-stranded RNase substrate (AID 588502). It is filed as functional.
For the next test, the system named is MEF. Nature of the test: SAR analysis of small molecule cytotoxicity of MazEF TA System activators in embryonic fibroblast (MEF) cells. [Related pubchem assays (depositor defined):AID504720, AID504743]. The note with it: Mus musculus. Format: functional.
The target in test [8] is T3, Endoribonuclease toxin MazF. Description: MazF endoribonuclease activators, SAR follow-up, biochemical, fluorescence, single-stranded RNA substrate (AID 588603). It is filed as functional.
The target is the same in test [9]. Nature of the test: SAR analysis of small molecule activators of the MazEF TA System via a fluorescence-based single-stranded RNase assay counterscreen. [Related pubchem assays (depositor defined):AID504720, AID504743]. It is filed as functional.
For a further test, the target named is Beta Lactamase (Pseudomonas aeruginosa, UniProt Q932Y6). Nature of the test: beta-lactamase reporter inhibitor potency, dose response, artefact control for TLR9-MyD88 binding inhibitor project, BLA reporter cells, FRET fluorescence (AID 588341).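 Note: cell based assay in CHO-K1 cells stably expressing beta-lactamase.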 Format: cell-based.
Another test deals with CHO. Description: cytotoxicity in TLR9-MyD88 CHO cells, dose response, cytotoxicity control for TLR9-MyD88 binding inhibitor project, cell-based, luminescence (AID 588339).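 Note: CHO cells stably coexpressing TLR9 and MyD88 fusions from primary screen; compound exposure lasted 48 hours before viability readout.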 Format: functional, hamster. The note with it: Cricetulus griseus.

SMILES strings stand for the structures. Calls of active or inactive are those of the source.

T2 sequence (O43613 whole entry): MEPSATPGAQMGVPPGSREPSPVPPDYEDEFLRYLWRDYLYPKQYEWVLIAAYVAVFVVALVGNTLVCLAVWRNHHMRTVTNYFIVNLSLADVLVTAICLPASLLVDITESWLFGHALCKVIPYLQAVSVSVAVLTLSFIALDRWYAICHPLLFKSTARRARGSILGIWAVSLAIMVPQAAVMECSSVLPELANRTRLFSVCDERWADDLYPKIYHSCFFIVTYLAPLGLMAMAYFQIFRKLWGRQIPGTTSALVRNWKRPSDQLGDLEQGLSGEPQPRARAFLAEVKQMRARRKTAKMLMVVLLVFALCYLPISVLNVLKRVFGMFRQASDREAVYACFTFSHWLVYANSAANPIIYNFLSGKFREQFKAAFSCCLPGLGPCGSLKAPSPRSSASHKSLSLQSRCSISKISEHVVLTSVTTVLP
T1 sequence (O43614 whole entry): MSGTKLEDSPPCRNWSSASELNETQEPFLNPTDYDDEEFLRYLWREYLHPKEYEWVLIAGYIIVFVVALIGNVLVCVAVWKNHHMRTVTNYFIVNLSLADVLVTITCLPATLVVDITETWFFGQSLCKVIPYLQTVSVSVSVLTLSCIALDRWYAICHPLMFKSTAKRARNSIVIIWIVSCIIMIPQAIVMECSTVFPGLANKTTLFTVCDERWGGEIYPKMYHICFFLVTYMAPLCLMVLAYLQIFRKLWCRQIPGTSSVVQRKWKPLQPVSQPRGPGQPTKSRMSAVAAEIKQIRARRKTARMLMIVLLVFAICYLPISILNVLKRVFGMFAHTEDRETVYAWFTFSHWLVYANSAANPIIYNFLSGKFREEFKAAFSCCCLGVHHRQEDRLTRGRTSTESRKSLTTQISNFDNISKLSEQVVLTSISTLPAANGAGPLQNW
Beta Lactamase, sequence (Q932Y6 whole entry, the tested form may be a part): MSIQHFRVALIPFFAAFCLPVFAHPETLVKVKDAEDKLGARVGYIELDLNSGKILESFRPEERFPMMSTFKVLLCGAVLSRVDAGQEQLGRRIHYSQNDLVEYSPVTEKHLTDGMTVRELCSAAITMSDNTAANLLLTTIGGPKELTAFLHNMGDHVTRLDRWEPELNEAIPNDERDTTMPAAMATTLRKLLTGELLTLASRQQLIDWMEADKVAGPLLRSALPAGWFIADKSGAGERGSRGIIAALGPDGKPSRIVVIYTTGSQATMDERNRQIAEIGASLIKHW

For orientation: IC50 means the concentration at which inhibition is half-maximal. Take `CCOc1ccccc1N1CCN(C(=O)c2ccc(S(=O)(=O)Nc3ccccc3)cc2)CC1`: the IC50 in [1] is 25.6 µM (inactive); on Orexin receptor type 2 [2], 42.5 µM (inactive); on Orexin receptor type 2 [3], > 50 µM (inactive); in test [4], 1.12 µM (active); in test [5], 15.1 µM (inactive); with CHO-K1, > 66.2 µM (inactive).

In general, EC50 refers to the concentration at which the effect is half-maximal. One may read the CC50 as the concentration at which the toxic effect on the cells reaches its halfway point. For `N=c1c2c(ncn1CCCO)Oc1cc(O)ccc1C2c1ccccc1` (stereo not drawn), the EC50 was 6.82 µM (active) in test [6], > 99 µM (inactive) in test [7], 6.2 µM (active) in [8] and 78.8 µM (inactive) in test [9]. Also, in the test with MEF, the CC50 is > 99 µM (inactive).

As for `CCN(CC)c1ccc(/C=C/C(=O)C2C(=O)C=C(C)OC2=O)cc1` (stereo not drawn), the half-inhibitory concentration (IC50) on Beta Lactamase is 4.88 µM (active); with CHO it was > 49.7 µM (inactive).

The values above are taken from ChEMBL document CHEMBL1201862, “PubChem BioAssay data set” (2004).
